Experimental findings from US20160318987A1 (MEDIMMUNE LIMITED, priority 2013, published 2016) are described below.

Read-outs that look alike come from different tables or passages of the source. Where a SMILES comes first, the peptide text is derived from it. Where no end group is shown, it is not given here. Side-chain parts run from the residue outwards. [ ]: non-standard residue; d: D form. αMeF = C[C@](N)(Cc1ccccc1)C(=O)O; Nle = CCCC[C@H](N)C(=O)O; Aib = CC(C)(N)C(=O)O; Mal = maleimide

In experiment [1] the target is T1, hGIP-R (Homo sapiens, UniProt P48546).
T1 construct: expressed in transfected cells
T1 sequence (P48546 22-466): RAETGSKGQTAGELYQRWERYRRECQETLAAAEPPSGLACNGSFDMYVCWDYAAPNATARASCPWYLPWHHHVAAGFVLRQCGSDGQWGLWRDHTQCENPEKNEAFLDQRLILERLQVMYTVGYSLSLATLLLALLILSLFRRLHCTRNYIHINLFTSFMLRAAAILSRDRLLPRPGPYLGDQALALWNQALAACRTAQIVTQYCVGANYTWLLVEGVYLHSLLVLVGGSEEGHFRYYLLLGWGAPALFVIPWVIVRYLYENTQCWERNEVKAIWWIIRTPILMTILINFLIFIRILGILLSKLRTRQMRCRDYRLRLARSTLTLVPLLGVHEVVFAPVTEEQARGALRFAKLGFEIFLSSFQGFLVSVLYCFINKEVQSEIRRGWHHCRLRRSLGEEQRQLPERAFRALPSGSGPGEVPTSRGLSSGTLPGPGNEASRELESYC
The experiment can be described thus: cAMP functional assay, cells expressing human GIP receptor (primary assay). Type of experiment: cell-based. To be noted: n = 2. Here is the method:
(§1) The biological activities/receptor potencies of the synthetic GLP-1 peptides described herein are suitably tested for biological activity, e.g., stimulation of one or more cellular receptor responses. Stable cell lines expressing human, mouse, rat, or dog GLP-1 receptor (GLP-1R), glucagon receptor (GCGR) or glucose-dependent insulinotropic peptide (gastric inhibitory polypeptide) receptor (GIPR) are generated in HEK293 cells or CHO cells by standard methods.
(§2) cAMP assays were performed using “assay buffer”: Assay Buffer: 0.1% BSA (Sigma #A3059) in HBSS (Sigma #H8264) with 25 mM HEPES, pH 7.4 and containing 0.5 mM IBMX (Sigma #17018).
(§3) Low protein binding 384-well plates (Greiner #781280) are used to perform eleven 1 in 5 serial dilutions of test samples which are made in assay buffer. All sample dilutions are made in duplicate.
(§4) A frozen cryo-vial of cells expressing the receptor of interest is thawed rapidly in a water-bath, transferred to pre-warmed assay buffer and spun at 240× g for 5 minutes. Cells are re-suspended in assay buffer at a batch-dependent optimized concentration (e.g. hGCGR cells at 2×10^5 cells/ml, hGLP-1R and hGIPR cells at 1×10^5 cells /ml).
(§5) From the dilution plate, a 5 μL replica is stamped onto a black shallow-well u-bottom 384-well plate (Corning #3676). To this, 5 μL cell suspension is added and the plates incubated at room temperature for 30 minutes.
(§6) cAMP levels are measured using a commercially available cAMP dynamic 2 HTRF kit (Cisbio, Cat #62AM4PEJ), following the two step protocol as per manufacturer's recommendations. In brief; anti-cAMP cryptate (donor fluorophore) and cAMP-d2 (acceptor fluorophore) are made up separately by diluting each 1/20 in conjugate & lysis buffer provided in the kit. 5 μL anti-cAMP cryptate is added to all wells of the assay plate, and 5 μL cAMP-d2 is added to all wells except non-specific binding (NSB) wells, to which conjugate and lysis buffer are added. Plates are incubated at room temperature for one hour and then read on an Envision (Perkin Elmer) using excitation wavelength of 320 nm and emission wavelengths of 620 nm & 665 nm. EC50 values of the synthetic peptides determined in cAMP assays are then determined.

Experiment [2] concerns the target T2, hGLP-1R (Homo sapiens, UniProt P43220).
T2 construct: expressed in transfected cells
The experiment can be described thus: cAMP functional assay, cells expressing human GLP-1 receptor (primary assay). Particulars: n = 2. It counts as cell-based. Here is the method: as §1, §2, §3, §4, §5, §6

T2 sequence (P43220 24-463): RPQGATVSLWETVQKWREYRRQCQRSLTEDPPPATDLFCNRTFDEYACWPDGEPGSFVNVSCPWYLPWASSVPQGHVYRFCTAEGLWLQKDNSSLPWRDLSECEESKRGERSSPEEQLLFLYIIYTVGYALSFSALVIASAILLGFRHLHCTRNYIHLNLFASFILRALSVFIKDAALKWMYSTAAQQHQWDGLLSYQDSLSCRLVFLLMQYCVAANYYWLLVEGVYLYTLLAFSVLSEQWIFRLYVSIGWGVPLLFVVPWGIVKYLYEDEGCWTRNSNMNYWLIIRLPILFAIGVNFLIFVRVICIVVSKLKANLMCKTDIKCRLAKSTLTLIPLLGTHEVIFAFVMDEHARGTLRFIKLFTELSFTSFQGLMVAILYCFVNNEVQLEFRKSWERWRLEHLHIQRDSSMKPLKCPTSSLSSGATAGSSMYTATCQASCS

A word on the EC50: it is the midpoint of the concentration-response curve. In the case of `CC[C@H](C)[C@H](NC(=O)C(C)(C)NC(=O)[C@H](CCC(=O)O)NC(=O)[C@H](CCCCN)NC(=O)[C@H](C)NC(=O)[C@H](C)NC(=O)[C@H](CCC(N)=O)NC(=O)CNC(=O)[C@H](CCC(=O)O)NC(=O)[C@H](CC(C)C)NC(=O)C(C)(C)NC(=O)[C@H](CO)NC(=O)[C@H](CO)NC(=O)[C@@H](NC(=O)[C@H](CC(=O)O)NC(=O)[C@H](CO)NC(=O)[C@@H](NC(=O)C(C)(C)NC(=O)[C@@H](NC(=O)CNC(=O)[C@H](CCC(=O)O)NC(=O)C(C)(C)NC(=O)[C@@H](N)Cc1c[nH]cn1)[C@@H](C)O)[C@@H](C)O)C(C)C)C(=O)N[C@@H](C)C(=O)NC(C)(C)C(=O)N[C@@H](CC(C)C)C(=O)N[C@H](C(=O)N[C@@H](CCCCN)C(=O)NCC(=O)N[C@@H](CCCNC(=N)N)C(N)=O)C(C)C` [SEQ ID NO: 16, H-(Aib)^2-EGT^5-(Aib)^6-TSDV^10 SS-(Aib)^13-LE^15 GQAAK^20 E-(Aib)^22-IA-(Aib)^25 LVKGR^30] (H-H[Aib]EGT[Aib]TSDVSS[Aib]LEGQAAKE[Aib]IA[Aib]LVKGR-NH2), the EC50 in experiment [1] and in experiment [2] was 102 nM each time.

Turning to `CCCC[C@H](NC(=O)[C@H](C)NC(=O)[C@@H](NC(=O)[C@H](CCCC)NC(=O)[C@H](CCC(=O)O)NC(=O)[C@H](CCCCN)NC(=O)[C@H](C)NC(=O)[C@H](C)NC(=O)[C@H](CCC(N)=O)NC(=O)CNC(=O)[C@H](CCC(=O)O)NC(=O)[C@H](CC(C)C)NC(=O)[C@H](CCCC)NC(=O)[C@H](CO)NC(=O)[C@H](CO)NC(=O)[C@@H](NC(=O)[C@H](CC(=O)O)NC(=O)[C@H](CO)NC(=O)[C@@H](NC(=O)[C@H](CCCC)NC(=O)[C@@H](NC(=O)CNC(=O)[C@H](CCC(=O)O)NC(=O)C(C)(C)NC(=O)[C@@H](N)Cc1c[nH]cn1)[C@@H](C)O)[C@@H](C)O)C(C)C)[C@@H](C)CC)C(=O)N[C@@H](CC(C)C)C(=O)N[C@H](C(=O)N[C@@H](CCCCN)C(=O)NCC(=O)N[C@@H](CCCNC(=N)N)C(N)=O)C(C)C` [SEQ ID NO: 17, H-(Aib)^2-EGT^5-(Nle)^6-TSDV^10 SS-(Nle)^13-LE^15 GQAAK^20 E-(Nle)^22-IA-(Nle)^25 LVKGR^30] (H-H[Aib]EGT[Nle]TSDVSS[Nle]LEGQAAKE[Nle]IA[Nle]LVKGR-NH2), the EC50 in experiment [1] is 102 nM; in experiment [2], 3.48 nM.

Regarding `CC[C@H](C)[C@H](NC(=O)[C@H](Cc1ccccc1)NC(=O)[C@H](CCC(=O)O)NC(=O)[C@H](CCCCN)NC(=O)[C@H](C)NC(=O)[C@H](C)NC(=O)[C@H](CCC(N)=O)NC(=O)CNC(=O)[C@H](CCC(=O)O)NC(=O)[C@H](CC(C)C)NC(=O)[C@H](Cc1ccccc1)NC(=O)[C@H](CO)NC(=O)[C@H](CO)NC(=O)[C@@H](NC(=O)[C@H](CC(=O)O)NC(=O)[C@H](CO)NC(=O)[C@@H](NC(=O)[C@H](Cc1ccccc1)NC(=O)[C@@H](NC(=O)CNC(=O)[C@H](CCC(=O)O)NC(=O)C(C)(C)NC(=O)[C@@H](N)Cc1c[nH]cn1)[C@@H](C)O)[C@@H](C)O)C(C)C)C(=O)N[C@@H](C)C(=O)N[C@@H](Cc1ccccc1)C(=O)N[C@@H](CC(C)C)C(=O)N[C@H](C(=O)N[C@@H](CCCCN)C(=O)NCC(=O)N[C@@H](CCCNC(=N)N)C(N)=O)C(C)C` [SEQ ID NO: 18, H-(Aib)^2-EGT^5-FTSDV^10 SS-(F)^13-LE^15 GQAAK^20 EFIA-(F)^25 LVKGR^30] (H-H[Aib]EGTFTSDVSSFLEGQAAKEFIAFLVKGR-NH2), the EC50 worked out at 102 nM in experiment [1] and 0.0163 nM in experiment [2].

Consider `CC[C@H](C)[C@H](NC(=O)[C@](C)(Cc1ccccc1)NC(=O)[C@H](CCC(=O)O)NC(=O)[C@H](CCCCN)NC(=O)[C@H](C)NC(=O)[C@H](C)NC(=O)[C@H](CCC(N)=O)NC(=O)CNC(=O)[C@H](CCC(=O)O)NC(=O)[C@H](CC(C)C)NC(=O)[C@](C)(Cc1ccccc1)NC(=O)[C@H](CO)NC(=O)[C@H](CO)NC(=O)[C@@H](NC(=O)[C@H](CC(=O)O)NC(=O)[C@H](CO)NC(=O)[C@@H](NC(=O)[C@](C)(Cc1ccccc1)NC(=O)[C@@H](NC(=O)CNC(=O)[C@H](CCC(=O)O)NC(=O)C(C)(C)NC(=O)[C@@H](N)Cc1c[nH]cn1)[C@@H](C)O)[C@@H](C)O)C(C)C)C(=O)N[C@@H](C)C(=O)N[C@@](C)(Cc1ccccc1)C(=O)N[C@@H](CC(C)C)C(=O)N[C@H](C(=O)N[C@@H](CCCCN)C(=O)NCC(=O)N[C@@H](CCCNC(=N)N)C(N)=O)C(C)C` [SEQ ID NO: 19, H-(Aib)^2-EGT^5-(α-MeF)^6-TSDV^10 SS-(α-MeF)^13-LE^15 GQAAK^20 E-(α-MeF)^22-IA-(α-MeF)^25 LVKGR^30] (H-H[Aib]EGT[αMeF]TSDVSS[αMeF]LEGQAAKE[αMeF]IA[αMeF]LVKGR-NH2), for which the EC50 in experiment [1] is 102 nM; in experiment [2], 0.026 nM.

As for `CC[C@H](C)[C@H](NC(=O)[C@H](Cc1ccccc1)NC(=O)[C@H](CCC(=O)O)NC(=O)[C@H](CCCCN)NC(=O)[C@H](C)NC(=O)[C@H](C)NC(=O)[C@H](CCC(N)=O)NC(=O)CNC(=O)[C@H](CCC(=O)O)NC(=O)[C@H](CC(C)C)NC(=O)[C@H](Cc1ccc(O)cc1)NC(=O)[C@H](CO)NC(=O)[C@H](CO)NC(=O)[C@@H](NC(=O)[C@H](CC(=O)O)NC(=O)[C@H](CO)NC(=O)[C@@H](NC(=O)[C@H](Cc1ccccc1)NC(=O)[C@H](CO)NC(=O)CNC(=O)[C@H](CCC(=O)O)NC(=O)C(C)(C)NC(=O)[C@@H](N)Cc1c[nH]cn1)[C@@H](C)O)C(C)C)C(=O)N[C@@H](C)C(=O)N[C@@H](Cc1c[nH]c2ccccc12)C(=O)N[C@@H](CC(C)C)C(=O)N[C@H](C(=O)N[C@@H](CCCCN)C(=O)NCC(=O)N[C@@H](CCCNC(=N)N)C(N)=O)C(C)C` [SEQ ID NO: 28, H-(Aib)^2-EG-(S)^5-FTSDV^10 SSYLE^15 GQAAK^20 EFIAW^25 LVKGR^30], the EC50 in experiment [1] came out at 102 nM; in experiment [2], 0.00951 nM.

On to `CC[C@H](C)[C@H](NC(=O)[C@](C)(Cc1ccccc1)NC(=O)[C@H](CCC(=O)O)NC(=O)[C@H](CCCCN)NC(=O)[C@H](C)NC(=O)[C@H](C)NC(=O)[C@H](CCC(N)=O)NC(=O)CNC(=O)[C@H](CCC(=O)O)NC(=O)[C@H](CC(C)C)NC(=O)[C@](C)(Cc1ccccc1)NC(=O)[C@H](CO)NC(=O)[C@H](CO)NC(=O)[C@@H](NC(=O)[C@H](CC(=O)O)NC(=O)[C@H](CO)NC(=O)[C@@H](NC(=O)[C@](C)(Cc1ccccc1)NC(=O)[C@@H](NC(=O)CNC(=O)[C@H](CCC(=O)O)NC(=O)C(C)(C)NC(=O)[C@@H](N)Cc1c[nH]cn1)[C@@H](C)O)[C@@H](C)O)C(C)C)C(=O)N[C@@H](C)C(=O)N[C@@H](Cc1c[nH]c2ccccc12)C(=O)N[C@@H](CC(C)C)C(=O)N[C@H](C(=O)N[C@@H](CCCCN)C(=O)NCC(=O)N[C@@H](CCCNC(=N)N)C(N)=O)C(C)C` [SEQ ID NO: 29, H-(Aib)^2-EGT^5-(α-MeF)^6-TSDV^10 SS-(α-MeF)^13-LE^15 GQAAK^20 E-(α-MeF)^22-IAW^25 LVKGR^30] (H-H[Aib]EGT[αMeF]TSDVSS[αMeF]LEGQAAKE[αMeF]IAWLVKGR-NH2), for which the EC50 is 102 nM in experiment [1] and 0.0126 nM in experiment [2].

For “H-(Aib)^2-EG-(S)^5-(α-MeF)^6-TSDV^10 SS-(α-MeF)^13-LE^15 GQAAK^20 E-(α-MeF)^22-IA-(α-MeF)^25 LVKG-(G)^30-(SSG)3-(Cys-Mal-mPEG)[40 kD] (H[Aib]EGS[αMeF]TSDVSS[αMeF]LEGQAAKE[αMeF]IA[αMeF]LVKGGSSGSSGSSGC([Mal-mPEG 40 kDa]); not fully specified (C-terminus); printed as H-(Aib)^2-EG-(S)^5-(α-MeF)^6-TSDV^10 SS-(α-MeF)^13-LE^15 GQAAK^20 E-(α-MeF)^22-IA-(α-MeF)^25 LVKG-(G)^30-(SSG)3-(Cys-Mal-mPEG)[40 kD]) [SEQ ID NO: 50]”, the EC50 in experiment [2] (read-out: Primary assay EC50 (n = 2) hGLP-1R) was 0.0278 nM.
